These results are taken from patent publication US12448366B2, “Solid forms of pralsetinib” (Rigel Pharmaceuticals, Inc., priority 2020, dated 2025).

Like-named read-outs stand apart in the source and are kept apart here.

The subject of one data set is RET. The following applies: patients with RET-altered NSCLC and MTC; cited from earlier work.
Data set [1] is described as follows: Co-melting co-crystal screening, XRPD. Type of data set: physicochemical. The settings on record: co-melting with pralsetinib freebase, 1.05 eq. co-former. As to the method:
The resulting powder was packed into a 100 μL DSC pan and heated at a rate of 10° C./min to 10° C. above the melting temperature of the lowest melting component. The experiment was isothermally held for 5 min before cooling to room temperature at a rate of 10° C./min. Samples were then taken for XRPD.

A short description of data set [2]: Co-milling co-crystal screening, XRPD. Type of data set: physicochemical. The following applies: co-milling with freebase. As to the method:
About 30 mg of Compound (I) freebase and 1.05 eq. of co-former were direct weighed into the milling capsule and manually mixed before the addition of 1 volume of solvent (MtBE, MeOAc, or EtOH). Each system was milled once for 30 seconds before solids were collected. Samples of the wet material were taken for XRPD of the ‘wet’ material before drying under active vacuum at 50° C. for 2 hours. Unique patterns were further exposed to 97% R.H. for 24 hours.

Data set [3] is described as follows: Qualitative water solubility of salts (salt screen). Type of data set: physicochemical.
Data set [4] in a line: Salt screening: XRPD of wet cake, after drying under vacuum at 50° C., after exposure to 97% relative humidity. Type of data set: physicochemical. The settings on record: XRPD; for stability of salt solid form to humidification: 97% (>95%) relative humidity; for stability of salt solid form to drying: vacuum at 50° C. As to the method:
Stock solutions of counter-ion were prepared in EtOH, MeOH, or EtOAc, depending on solubility. […] The solvent was allowed to evaporate at room temperature over the weekend and then placed at 50° C. under vacuum for 3 hours to remove any remaining solvent. Approximately 25 volumes solvent (0.6 mL) was added to each vial for screening. The three solvents selected were EtOH, EtOAc, and IPA:water (9:1 vol). […] XRPD analysis was done in three stages. XRPD of the wet cake was done for all samples. Unique solids were then left on XRPD plates and dried under vacuum at 50° C. XRPD of unique dry solids was then done. […] The humid environment was generated by placing a beaker of saturated potassium sulfate in water in a sealed container. All XRPD patterns were compared to counter ion XRPD patterns and known free base patterns. Where solids were not of sufficient quantity to isolate, the solvent was evaporated at room temperature, the material dried at 50° C. under active vacuum for 3 hours, and then reslurried at room temperature in either MtBE or IPAc overnight after heating to 45° C. for 30 minutes.

Data set [5] in a line: Solubility in water and simulated fluids (fasted/fed state simulated intestinal fluid, fasted state simulated gastric fluid). Type of data set: physicochemical.
Data set [6] can be described thus: Competitive slurry experiments between free base solid forms. Type of data set: physicochemical. The settings on record: for competitive slurry in methanol:water: high ratios of water to methanol and lower temperatures.
Data set [7] in a line: Thermal treatment in DSC followed by XRPD (Example 2G). Type of data set: physicochemical. An excerpt: Select solids were used for thermal treatment in DSC. Solids were heated to specified temperature and then cooled back to room temperature for analysis by XRPD.
A short description of data set [8]: Dynamic vapor sorption (DVS). The settings on record: for hygroscopicity (words): DVS; for XRPD / form stability after DVS humidity cycling: XRPD before and after DVS; for total mass change by DVS: between 2% and 95% relative humidity. The format is physicochemical. As to the method:
Dynamic Vapor Sorption (DVS) was done using a DVS Intrinsic 1. The sample is loaded into a sample pan and suspended from a microbalance. A typical sample mass for DVS measurement is 25 mg. Nitrogen gas bubbled through distilled water provides the desired relative humidity. A typical measurement comprises the steps: • 1—Equilibrate at 50% RH • 2—50% to 2%. (50%, 40%, 30%, 20%, 10% and 2%) • a. Hold minimum of 5 mins and maximum of 60 minutes at each humidity. The pass criteria is less than 0.002% change • 3—2% to 95% (2%, 10%, 20%, 30%, 40%, 50%, 60%, 70%, 80%, 90%, 95%) • a. Hold minimum of 5 mins and maximum of 60 minutes at each humidity. The pass criteria is less than 0.002% change • 4—95% to 2% (95%, 80%, 70%, 60%, 50%, 40%, 30%, 20%, 10%, 2%) • a. Hold minimum of 5 mins and maximum of 60 minutes at each humidity. The pass criteria is less than 0.002% change • 5—2% to 50% (2%, 10%, 20%, 30%, 40%, 50%) • a. Hold minimum of 5 mins and maximum of 60 minutes at each humidity. The pass criteria is less than 0.002% change High Pressure Liquid Chromatography (HPLC)
Dynamic Vapor Sorption (DVS) was performed using a DVS Intrinsic 1. The samples (12-31 mg) was loaded into a sample pan, suspended from a microbalance and exposed to a humidified stream of nitrogen gas. The sample was held for a minimum of 5 min at each level and only progressed to the next humidity level if there was <0.002% change in weight between measurements (interval: 60 seconds) or 240 min had elapsed. The following program was used: • 1—Equilibration at 50% RH • 2—50% to 2%. (50%, 40%, 30%, 20%, 10% and 2%) • 3—2% to 95% (2%, 10%, 20%, 30%, 40%, 50%, 60%, 70%, 80%, 90%, 95%) • 4—95% to 2% (95%, 80%, 70%, 60%, 50%, 40%, 30%, 20%, 10%, 2%) • 5—2% to 50% (2%, 10%, 20%, 30%, 40%, 50%) High Performance Liquid Chromatography (HPLC)

Data set [9] can be described thus: Humidity exposure, 75% relative humidity at 40° C. for one week, XRPD. The format is physicochemical. The settings on record: for stability on exposure to 75% relative humidity at 40° C.: one week / 7 days, XRPD.
Data set [10] in a line: DSC and TGA/DSC thermal analysis. The format is physicochemical. The following applies: exotherm. As to the method:
Differential scanning calorimetry was done using a Mettler Toledo DSC3+. The desired amount of sample is weighed directly in a hermetic aluminum pan with pin-hole. A typical sample mass for is 3-5 mg. A typical temperature range is 30° C. to 300° C. at a heating rate of 10° C. per minute (total time of 27 minutes). Typical parameters for DSC are listed below.
Thermogravimetric analysis and differential scanning calorimetry was done using a Mettler Toledo TGA/DSC3+. The desired amount of sample is weighed directly in a hermetic aluminum pan with pin-hole. A typical sample mass for the measurement is 5-10 mg. A typical temperature range is 30° C. to 300° C. at a heating rate of 10° C. per minute (total time of 27 minutes). Protective and purge gasses are nitrogen (20-30 mL/min and 50-100 mL/min). Typical parameters for DSC/TGA are listed below.
Differential scanning calorimetry was performed using a Mettler Toledo DSC3+. The sample (3-5 mg) was weighed directly in a 40 μL hermetic aluminum pan with pin-hole and analyzed according to the parameters below:
Thermogravimetric analysis and differential scanning calorimetry were performed on the same sample simultaneously using a Mettler Toledo TGA/DSC3+. […] The desired amount of sample (5-10 mg) was weighed directly in a hermetic aluminum pan with pin-hole and analyzed according to the parameters below: […]

Turning to `CO[C@]1(C(=O)N[C@@H](C)c2ccc(-n3cc(F)cn3)nc2)CC[C@H](c2nc(C)cc(Nc3cc(C)[nH]n3)n2)CC1` [Compound (I), (cis)-N-((S)-1-(6-(4-fluoro-1H-pyrazol-1-yl)pyridin-3-yl)ethyl)-1-methoxy-4-(4 methyl-6-(5-methyl-1H-pyrazol-3-ylamino)pyrimidin-2-yl)cyclohexanecarboxamide], in the data set on RET, the RET signaling entry is on record as “attenuated”, the clinical responses result is on record as “durable clinical responses” and the off target toxicity entry is recorded as “without notable off target toxicity”.
Consider `O.O.O=c1c(O)c(-c2ccc(O)c(O)c2)oc2cc(O)cc(O)c12` [Quercetin Dihydrate], for which, in data set [1], the “Dry (XRPD)” value is “Am”. Besides, the “Wet (XRPD)” value in [2] (solvent MtBE, MeOAc, EtOH) was “FB-C + quercetin”.
Take `O=C1NS(=O)(=O)c2ccccc21` [Saccharin]: the “Dry (XRPD)” value in data set [1] was “Am”. Further, the “Wet (XRPD)” value is reported as “Am. + 1 peak” in [2] (solvent EtOH), “Am. + trace FB-C” in [2] (solvent MeOAc) and “FB-C + saccharin” in [2] (solvent MtBE).
For `CO[C@]1(C(=O)N[C@@H](C)c2ccc(-n3cc(F)cn3)nc2)CC[C@H](c2nc(C)cc(Nc3cc(C)[nH]n3)n2)CC1` [Solid Form 10-A, pralsetinib], in data set [3] (listed as salicylate 10-A), the qualitative water solubility result is given as “low solubility”. For the same compound, in data set [4] (listed as 10-A), the “stability of salt solid form to humidification” value is on record as “stable” and the “stability of salt solid form to drying” value is reported as “stable”.
On to `CO[C@]1(C(=O)N[C@@H](C)c2ccc(-n3cc(F)cn3)nc2)CC[C@H](c2nc(C)cc(Nc3cc(C)[nH]n3)n2)CC1` [Solid Form 12-A, pralsetinib], for which, in data set [3], the qualitative water solubility entry is “low”. For the same compound, in data set [4] (listed as Pattern 12-A), the “stability of salt solid form to humidification” value is listed as “stable” and the “stability of salt solid form to drying” value is reported as “stable”.
Take `CO[C@]1(C(=O)N[C@@H](C)c2ccc(-n3cc(F)cn3)nc2)CC[C@H](c2nc(C)cc(Nc3cc(C)[nH]n3)n2)CC1` [Solid Form A, pralsetinib]: in data set [5], the “solubility in simulated gastric fluid” value was “high solubility”, the “solubility in simulated intestinal fluid” value was “low solubility” and the “solubility in water” value is listed as “low solubility”. Moreover, the “competitive slurry in methanol:water” value in data set [6] was “converted to Solid Form C”. Further, in data set [6] (listed as Pattern A), the “competitive slurry in methanol:water” value is listed as “converted to a praletinib free base material characterized by XRPD Pattern C”; the “Competitive slurry MeOH: water (1:1 vol) at 23 and 50° C.” value was “A converts to C”; the “Competitive slurry isopropanol, MeOH:MtBE” value was “A stable”. Moreover, in data set [7], the “solid form after a hold at the melting point” value was “did not convert to material with XRPD Pattern H”. Also, in [8], the “reversibility of the DVS mass change” value is “reversible”, the “share of the DVS mass change occurring above 70% relative humidity” value was determined as 80%, the “share of the DVS mass change occurring above 80% relative humidity” value stood at 70% and the “hygroscopicity (words)” value is “hygroscopic”. In data set [8], the “XRPD / form stability after DVS humidity cycling” value is listed as “stable” and the “total mass change by DVS” value worked out at 10.2 wt. %. In [8] (listed as solid form A), the “hygroscopicity (words)” value is given as “hygroscopic” and the “XRPD / form stability after DVS humidity cycling” value is “Pattern A”. Moreover, the “DVS Water Mass Change (wt. %)” value in [8] (Table 3E, listed as Pattern A) is 10.2 wt. %. Besides, in data set [8] (between 2-95% relative humidity), the “reversible mass change by DVS” value was “about 10%”. The “water mass gained by dynamic vapor sorption” value in [8] (between 2 and 95% relative humidity at 25° C.) is 10%. Further, the water pick-up result in data set [8] (between 15 to 75% relative humidity) is “about 2%”. In data set [9], the “conversion to hydrate Solid Form C on prolonged / high humidity exposure” value is recorded as “did not convert to Solid Form C” and the “stability on exposure to 75% relative humidity at 40° C.” value is reported as “stable”. Moreover, the “stability on exposure to 75% relative humidity at 40° C.” value in data set [9] (listed as Pattern A) is recorded as “remained unchanged”.
On to `CO[C@]1(C(=O)N[C@@H](C)c2ccc(-n3cc(F)cn3)nc2)CC[C@H](c2nc(C)cc(Nc3cc(C)[nH]n3)n2)CC1` [Solid Form B, pralsetinib], for which the “solid form after heating to 190° C.” value in data set [7] (190° C.) is on record as “converted to solid form A”. The “total mass change by DVS” value in data set [8] is 1.4 wt. %. In [9] (listed as Pattern B), the “conversion to hydrate Solid Form C on prolonged / high humidity exposure” value was “not observed to convert back to hydrate XRPD Pattern C” and the “stability on exposure to 75% relative humidity at 40° C.” value is reported as “remained unchanged”.
For the compound `CO[C@]1(C(=O)N[C@@H](C)c2ccc(-n3cc(F)cn3)nc2)CC[C@H](c2nc(C)cc(Nc3cc(C)[nH]n3)n2)CC1` [Solid Form F, pralsetinib], the “solid form after heating to 140° C.” value in [7] (140° C.) is “converted to solid form B”.
On to `COc1cc(C(=O)O)ccc1O` [Vanillic Acid], for which the “Dry (XRPD)” value in data set [1] was “Am”. Moreover, the “Wet (XRPD)” value in data set [2] (solvent EtOH) is on record as “FB-C”; in [2] (solvent MtBE, MeOAc), “FB-C + vanillic acid”.
Take `CO[C@]1(C(=O)N[C@@H](C)c2ccc(-n3cc(F)cn3)nc2)CC[C@H](c2nc(C)cc(Nc3cc(C)[nH]n3)n2)CC1` [freebase (Pattern FB-A)]: the “DVS Mass Change” value in data set [8] (glutarate and succinate: between 2% and 90% relative humidity) is listed as 10.2 wt. %. In data set [9] (XRPD pattern after exposure), the “Stability 40° C./75% RH” value is on record as “Stable”. The “Endotherm Onset, event marked (exo)” value in [10] was 162.7 (exo) ° C.
As to Urea, the “Dry (XRPD)” value in [1] was “FB-A +”. The “Wet (XRPD)” value in data set [2] (solvent EtOH) is recorded as 16-B + FB-C; in data set [2] (solvent MtBE, MeOAc) it was “FB-C + urea”. Besides, the “Humidity (XRPD)” value in data set [2] (solvent EtOH, 97% R.H. for 24 hours) was 16-B + FB-C.
